Experimental data reported in patent US12239643B2, “Therapeutic agent for inflammatory diseases, autoimmune diseases, fibrotic diseases, and cancer diseases” (MEIJI SEIKA PHARMA CO., LTD., priority 2018, dated 2025).
Read-outs that look alike come from different tables or passages of the source.

Tests used:
PDE4 = assay: Evaluation of PDE4 inhibitory activity, scintillation proximity assay; format: biochemical; conditions: for PDE4 inhibitory activity: summary in words of Tables 57 to 69
Outline: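 SPA with [2,8-3H]-cAMP and diluted PDE4 enzyme preparation in 50 mM Tris-HCl pH 7.4, 8.3 mM MgCl2, 1.7 mM EGTA, 3 mg/mL BSA, 120 min at room temperature. Product captured on ZnSO4-containing YSi-SPA beads, scintillation counted; IC50 from inhibition curves vs DMSO control and no-enzyme blank.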

[1] = test system: histamine-induced vascular hyperpermeability, Crl:CD1 (ICR) mice; assay: Histamine-induced mouse vascular hyperpermeability model; format: in vivo; conditions: 10 mg/kg orally, histamine intradermally
Protocol: Evaluation was carried out using male Crl:CD1 (ICR) mice (6 to 7 weeks of age). First, before conducting the test, the hair on the back of the mice was shaved with a small hair clipper under isoflurane anesthesia (an appropriate amount of about 3% with an inhalation isoflurane anesthesia machine). Next, the mice were orally administered with 10 mg/kg (10 mL/kg) of the test compound dissolved or suspended in 0.5% w/v methylcellulose (0.5% MC), and intravenously administered with 0.4% Evans blue saline (10 mL/kg) after 1 to 4 hours, and approximately 2 minutes later, 15 mM histamine saline was intradermally administered to the dorsal neck as a vascular hyperpermeability substance (20 μL/site). […] The absorption value (620/670 nm) of the supernatant after centrifugation was measured with a plate reader, and the average absorption value of the blank group was subtracted therefrom. Using the resultant as the absorption value of each tissue lysate, the vascular permeability suppression rate was calculated by the following formula. […]
The measurement results obtained by measuring the vascular permeability suppression rate of the test compound by the above method were evaluated in accordance with the following evaluated basis; A: 90% or more, B: 80% or more and less than 90%, and C: less than 80%. […]

IL-17A = assay: Cytokine suppression using whole human blood: IL-17A (phytohaemagglutinin stimulus); format: cell-based; conditions: read-out: IL-17A Inhibitory Activity, Human Whole Blood (Test Example 3)
Protocol: The test compound dissolved in dimethyl sulfoxide was added to a 96-well plate, and RPMI-1640 medium and human peripheral blood containing sodium heparin were added, followed by culture at 37° C. under 5% CO2 for 1 hour. A medium containing only dimethyl sulfoxide instead of the test compound was added to the control well. […]
After collecting the culture supernatant after culturing, the amount of each cytokine was measured by the sandwich ELISA method. […]
The measurement results obtained by measuring the TNFα inhibitory activity and IL-5 inhibitory activity (50% inhibitory concentration) of the test compounds by the above method were evaluated in accordance with the following evaluated basis; A: less than 100 nM, B: 100 nM or more and less than 500 nM, and C: 500 nM or more. In addition, the measurement results obtained by measuring the IL-17A inhibitory activity and IL-4 inhibitory activity (50% inhibitory concentration) of the test compounds were evaluated in accordance with the following evaluated basis; A: less than 500 nM, B: 500 nM or more and less than 5000 nM, and C: 5000 nM or more.

[2] = finer grading of compounds rated A in Evaluation 1, read-out: PDE4 Inhibitory Activity (Evaluation 2)
[3] = scintillation proximity assay, read-out: PDE4 Inhibitory Activity (Evaluation 1; concentration for the inhibition rate of 50%)

SMILES	IC50 (PDE4; [2])	IC50 (PDE4; scintillation proximity assay, class symbols of Evaluation 1, read-out: PDE4 Inhibitory Activity (concentration for the inhibition rate of 50%, IC50), Evaluation 1)	PDE4 inhibitory activity (PDE4)	IC50 (PDE4; [3])	vascular permeability suppression rate [1]	IC50 (IL-17A)
FC(F)(F)Oc1ccc(-c2nccs2)c2oc(N3CC4CC(C3)N4)nc12 [Example 29, 2-(3,6-Diazabicyclo[3.1.1]heptan-3-yl)-7-(thiazol-2-yl)-4-(trifluoromethoxy)benzo[d]oxazole]	1 to 11 nM	< 100 nM	particularly excellent	–	–	–
CC(O)C(F)(F)Oc1ccc(-c2nccs2)c2oc(N3CC4CC(C3)N4)nc12 (single isomer, unassigned) [Example 252, 1-((2-(3,6-Diazabicyclo[3.1.1]heptan-3-yl)-7-(thiazol-2-yl)benzo[d]oxazol-4-yl)oxy)-1,1-difluoropropan-2-ol]	≤ 1 nM	–	particularly excellent	< 100 nM	–	–
CCOc1cc([C@@H](CS(C)(=O)=O)N2C(=O)c3cccc(NC(C)=O)c3C2=O)ccc1OC [apremilast, reference compound]	11 to 100 nM	–	–	–	C (C: less than 80%)	≥ 5000 nM
CC(C)(O)C(F)(F)Oc1ccc(-c2nccs2)c2oc(N3CC4CC(C3)N4)nc12 [Example 248, 1-((2-(3,6-Diazabicyclo[3.1.1]heptan-3-yl)-7-(thiazol-2-yl)benzo[d]oxazol-4-yl)oxy)-1,1-difluoro-2-methylpropan-2-ol]	≤ 1 nM	–	particularly excellent	< 100 nM	A (A: 90% or more)	< 500 nM
